# According to US4794188A, “Certain unsymmetrical quinolinyl ethers having anti-inflammatory and anti-allergic activity” (USV Pharmaceutical Corporation, priority 1985, dated 1988):
# pIC50: −log10 of the molar value.
# Molecular target: T1, 5-LOX (Homo sapiens, UniProt P09917)
# T1 sequence (P09917 1-674): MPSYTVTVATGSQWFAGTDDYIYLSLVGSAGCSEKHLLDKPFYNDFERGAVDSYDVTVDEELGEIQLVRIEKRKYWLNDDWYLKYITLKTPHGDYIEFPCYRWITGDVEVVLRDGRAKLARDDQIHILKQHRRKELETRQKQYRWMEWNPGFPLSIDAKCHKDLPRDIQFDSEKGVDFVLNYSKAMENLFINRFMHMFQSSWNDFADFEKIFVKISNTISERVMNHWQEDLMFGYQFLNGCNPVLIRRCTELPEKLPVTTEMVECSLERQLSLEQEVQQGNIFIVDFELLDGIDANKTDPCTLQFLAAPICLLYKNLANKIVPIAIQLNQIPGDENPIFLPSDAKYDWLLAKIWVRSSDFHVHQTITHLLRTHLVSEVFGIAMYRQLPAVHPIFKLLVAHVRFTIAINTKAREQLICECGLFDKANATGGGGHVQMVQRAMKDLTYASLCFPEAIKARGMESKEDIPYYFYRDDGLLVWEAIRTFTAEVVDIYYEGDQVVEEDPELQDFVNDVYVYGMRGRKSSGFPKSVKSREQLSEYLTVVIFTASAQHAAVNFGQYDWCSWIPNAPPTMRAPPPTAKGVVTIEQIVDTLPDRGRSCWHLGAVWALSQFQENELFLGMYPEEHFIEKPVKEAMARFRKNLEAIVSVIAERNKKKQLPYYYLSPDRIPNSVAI
# Assay: 5-LOX inhibition (5-LOX I50, Table I)
# Type: biochemical
row,Compound,pIC50
1,CCCCCC(C)(O)c1cccc(OCc2ccc3ccccc3n2)c1 (stereo not shown),7.00
2,CCCCCC(NC)c1cccc(OCc2ccccn2)c1 (stereo not shown),5.66
3,OC(CCCCCOc1cccc(Cl)c1)c1cccc(OCc2ccc3ccccc3n2)c1 (stereo not shown),6.22
4,OC(CCCCCOc1ccccc1)c1cccc(OCc2ccc3ccccc3n2)c1 (stereo not shown),6.22
5,CC(O)(CCCCCOc1ccccc1)c1cccc(OCc2ccc3ccccc3n2)c1 (stereo not shown),6.10
6,CCCCC(C)C(O)c1cccc(OCc2ccc3ccccc3n2)c1 (stereo not shown),6.70
7,CCCCC(C)(C)C(O)c1cccc(OCc2ccc3ccccc3n2)c1 (stereo not shown),6.57
8,CCCCC(C)(C)C(C)(O)c1cccc(OCc2ccc3ccccc3n2)c1 (stereo not shown),6.57
9,CCCCCC(O)c1ccc(Oc2ccc3ccccc3n2)cc1 (stereo not shown),6.46
10,CCCCCC(O)c1cccc(OCc2ccncc2)c1 (stereo not shown),5.52
11,CCCCCC(O)c1cccc(OCc2ccccn2)c1 (stereo not shown),6.30
12,CCCCCC(O)c1cccc(OCc2cccnc2)c1 (stereo not shown),5.52
13,CCCCCC(O)c1cccc(OCc2cccc(C(=O)O)n2)c1 (stereo not shown),5.72
14,CCCCCC(O)c1cccc(OCc2cccc(C#N)n2)c1 (stereo not shown),4.52
15,CCCCCC(=O)c1cccc(OCc2ccc3ccccc3n2)c1,6.82
16,CCCCCC(C)(O)c1cccc(OCc2ccccn2)c1 (stereo not shown),6.52
17,CC(=O)CC(O)c1cccc(OCc2ccc3ccccc3n2)c1 (stereo not shown),6.74
18,CCCCCC(O)c1ccc(OCc2ccc3ccccc3n2)cc1 (stereo not shown),6.46
19,"CCCCC=Cc1cccc(OCc2ccc3ccccc3n2)c1 [3-(CHCHC4 H9), 2-[3-(1-Hexenyl)phenoxymethyl]quinoline]",5.62
